# Results from patent publication US11925733B2, “Malodor counteractant composition and methods” (Bell Flavors & Fragrances, Inc., priority 2016, dated 2024).
# Test: Gas chromatographic headspace measurement of fragrance compounds with and without zinc ricinoleate
# Format: physicochemical
# Conditions: 100 ng of each fragrance chemical on a film of 0.5 g zinc ricinoleate; FIG. 4
# Text: The effect of zinc ricinoleate [Zn(Ri)2] on the partitioning of compounds into the headspace. Headspace analysis is a sampling technique in which a nonvolatile matrix (liquid or solid) is heated and volatiles are collected as they partition (migrate) into the unfilled volume of the vial (headspace). These compounds are concentrated on an adsorbent tube then injected into the chromatograph where individual compounds are separated.
# A sample of volatile compounds are placed into a vial, sealed, and heated for a period of time. The volatile compounds will migrate into the gas headspace. The more volatile the compound, the more concentrated it will be in the headspace. Conversely, the less volatile components will partition into the headspace to a lesser extent thus separating components of interest from the nonvolatile sample matrix (diaper).
# For each test compound, 1 microliter of a 100 nanogram/microliter (ng/μl) solution (100 ng of each fragrance chemical) is put into a vial, warmed, purged, and volatiles concentrated in an adsorbent cartridge. The cartridge is desorbed into the GC where individual compounds are separated. A second set of each of the fragrance chemicals is prepared and added to a vial where 0.5 g zinc ricinoleate has been added. […]
substance,measurement,value
zinc ricinoleate,effect on headspace volatility of fragrance chemicals,reduction of volatility
